Measurements as given in ChEMBL document CHEMBL3994642, “Design, synthesis and biological evaluation of 2-(4-phenylthiazol-2-yl) isoindoline-1,3-dione derivatives as anti-prostate cancer agents” (Bioorg Med Chem Lett, 2017).
Calls of active or inactive are those of the source. The calls are words filed in the database; no cut-off is given here.

How the values were obtained:
[1] = Selectivity ratio of IC50 for AR negative human PC3 cells to IC50 for AR T877A mutant in human LNCAP cells
PC-3 = assay: Antiproliferative activity against AR negative human PC3 cells after 48 hrs by MTT assay; format: functional, cell-based; details: PC-3, 48 h
[2] = Selectivity index, ratio of IC50 for mouse 3T3 cells to IC50 for AR T877A mutant in human LNCAP cells; format: functional
[3] = test system: Androgen receptor (Homo sapiens), P10275 [T878A]; assay: Antagonist activity at AR T877A mutant in human LNCAP cells assessed as inhibition of DHT-induced TMPRSS2 mRNA level at 1 uM after 24 hrs by SYBR Green dye based qPCR method; format: cell-based
Androgen receptor (Homo sapiens), P10275 [T878A], sequence (P10275 whole entry T878A): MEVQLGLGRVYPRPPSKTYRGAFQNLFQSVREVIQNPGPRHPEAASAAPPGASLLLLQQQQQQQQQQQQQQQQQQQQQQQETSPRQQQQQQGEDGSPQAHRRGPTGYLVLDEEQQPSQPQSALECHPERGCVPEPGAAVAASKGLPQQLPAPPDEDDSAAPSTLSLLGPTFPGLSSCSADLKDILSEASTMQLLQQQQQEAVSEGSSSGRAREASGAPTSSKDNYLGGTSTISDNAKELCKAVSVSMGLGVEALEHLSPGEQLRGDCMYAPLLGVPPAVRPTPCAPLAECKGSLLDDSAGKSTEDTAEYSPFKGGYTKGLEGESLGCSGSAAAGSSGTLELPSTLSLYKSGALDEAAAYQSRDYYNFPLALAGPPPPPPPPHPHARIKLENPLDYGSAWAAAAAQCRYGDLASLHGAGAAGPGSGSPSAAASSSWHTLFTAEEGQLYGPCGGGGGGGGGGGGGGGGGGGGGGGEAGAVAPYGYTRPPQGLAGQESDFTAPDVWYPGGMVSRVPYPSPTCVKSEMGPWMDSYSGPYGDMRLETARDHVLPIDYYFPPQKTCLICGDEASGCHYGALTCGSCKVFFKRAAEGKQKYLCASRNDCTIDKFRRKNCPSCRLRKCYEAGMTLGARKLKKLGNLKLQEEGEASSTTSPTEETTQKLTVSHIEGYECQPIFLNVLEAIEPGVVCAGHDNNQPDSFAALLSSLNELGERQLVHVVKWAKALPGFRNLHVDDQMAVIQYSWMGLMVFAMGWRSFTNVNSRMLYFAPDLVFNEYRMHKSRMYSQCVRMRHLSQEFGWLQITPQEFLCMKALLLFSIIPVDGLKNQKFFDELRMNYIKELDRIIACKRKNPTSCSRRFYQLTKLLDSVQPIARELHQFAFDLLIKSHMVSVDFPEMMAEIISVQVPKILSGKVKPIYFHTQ

[4] = target: T1, Estrogen receptor (Homo sapiens) (UniProt P03372); assay: Activity at ER in human LNCAP cells assessed as inhibition of pS2 mRNA level at 5 uM after 24 hrs by SYBR Green dye based qPCR method; format: cell-based
T1 sequence (whole entry): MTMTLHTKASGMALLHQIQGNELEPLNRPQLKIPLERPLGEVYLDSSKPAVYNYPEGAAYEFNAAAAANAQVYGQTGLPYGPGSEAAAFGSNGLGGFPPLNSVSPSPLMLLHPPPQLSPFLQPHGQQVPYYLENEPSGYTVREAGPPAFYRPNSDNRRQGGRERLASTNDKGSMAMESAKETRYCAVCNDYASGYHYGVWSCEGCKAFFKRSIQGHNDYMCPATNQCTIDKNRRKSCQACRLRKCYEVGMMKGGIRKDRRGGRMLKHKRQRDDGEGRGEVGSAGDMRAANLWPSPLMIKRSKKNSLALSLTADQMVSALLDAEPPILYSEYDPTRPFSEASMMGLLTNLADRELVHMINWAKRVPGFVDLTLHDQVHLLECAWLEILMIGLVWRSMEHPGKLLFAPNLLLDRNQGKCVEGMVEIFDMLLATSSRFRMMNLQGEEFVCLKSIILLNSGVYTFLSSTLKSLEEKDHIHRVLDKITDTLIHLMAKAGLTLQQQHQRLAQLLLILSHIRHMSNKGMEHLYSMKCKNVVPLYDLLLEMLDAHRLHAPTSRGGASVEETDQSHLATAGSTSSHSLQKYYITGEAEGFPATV

[5] = test system: Androgen receptor (Homo sapiens), P10275 [T878A]; assay: Potency index, ratio of bicalutamide IC50 to compound IC50 for AR T877A mutant in human LNCAP cells assessed as inhibition of DHT-induced proliferation; format: cell-based
[6] = test system: Androgen receptor (Homo sapiens), P10275 [T878A]; assay: Antagonist activity at AR T877A mutant in human LNCAP cells assessed as inhibition of DHT-induced PSA mRNA level at 1 uM after 24 hrs by SYBR Green dye based qPCR method; format: cell-based
[7] = test system: Androgen receptor (Homo sapiens), P10275 [T878A]; assay: Antagonist activity at AR T877A mutant in human LNCAP cells assessed as inhibition of DHT-induced Cyclin D1 mRNA level at 1 uM after 24 hrs by SYBR Green dye based qPCR method; format: cell-based
[8] = test system: Androgen receptor (Homo sapiens), P10275 [T878A]; assay: Potency index, ratio of R-bicalutamide IC50 to compound IC50 for AR T877A mutant in human LNCAP cells assessed as inhibition of DHT-induced proliferation; format: cell-based
[9] = test system: Androgen receptor (Homo sapiens), P10275 [T878A]; assay: Antagonist activity at AR T877A mutant in human LNCAP cells assessed as inhibition of DHT-induced c-Myc mRNA level at 1 uM after 24 hrs by SYBR Green dye based qPCR method; format: cell-based

| SMILES | Ratio IC50 [1] | IC50 (PC-3) [µM] | Ratio IC50 [2] | other results |
| --- | --- | --- | --- | --- |
| COc1ccc(-c2csc(N3C(=O)c4ccc(F)cc4C3=O)n2)cc1 | 5.05 | 41.3 | 5.04 |  |
| O=C1c2ccc(F)cc2C(=O)N1c1nc(-c2ccccc2)cs1 | 1.17 | 40.2 | 1.9 |  |
| C[C@](O)(CS(=O)(=O)c1ccc(F)cc1)C(=O)Nc1ccc(C#N)c(C(F)(F)F)c1 [(R)-BICALUTAMIDE] |  | 59.8 |  |  |
| N#Cc1ccc(-c2csc(N3C(=O)c4ccccc4C3=O)n2)cc1 | 3.67 | 40.3 | 3.57 |  |
| O=C1c2ccccc2C(=O)N1c1nc(-c2ccc([N+](=O)[O-])cc2)cs1 | 3.17 | 41.8 | 3.15 |  |
| O=C1c2ccccc2C(=O)N1c1nc(-c2ccc(F)cc2)cs1 | 1.3 | 37.2 | 1.36 |  |
| O=C1c2ccccc2C(=O)N1c1nc(-c2ccccc2)cs1 | 1.19 | 43.9 | 1.26 |  |
| COc1ccc(-c2csc(N3C(=O)c4ccccc4C3=O)n2)cc1 | 3.14 | 42.9 | 3.29 |  |
| O=C1c2ccc(F)cc2C(=O)N1c1nc(-c2ccc(Cl)cc2)cs1 | 1.35 | 38 | 1.59 |  |
| O=C1c2ccccc2C(=O)N1c1nc(-c2ccc(Cl)cc2)cs1 | 1.71 | 44.9 | 1.91 |  |
| Cc1ccc(-c2csc(N3C(=O)c4ccc(F)cc4C3=O)n2)cc1 | 1.71 | 44.4 | 1.51 |  |
| O=C1c2ccc(F)cc2C(=O)N1c1nc(-c2ccc(F)cc2)cs1 | 1.8 | 39.5 | 2.04 |  |
| CC(O)(CS(=O)(=O)c1ccc(F)cc1)C(=O)Nc1ccc(C#N)c(C(F)(F)F)c1 (stereo unspecified) [BICALUTAMIDE] |  | 60.7 |  |  |
| O=C1c2ccc(F)cc2C(=O)N1c1nc(-c2ccc([N+](=O)[O-])cc2)cs1 | 5.12 | 39.9 | 4.69 |  |
| N#Cc1ccc(-c2csc(N3C(=O)c4ccc(F)cc4C3=O)n2)cc1 | 7.23 | 43.1 | 7.09 | inhibition [3]: Active; inhibition [4]: inactive; Ratio IC50 [5]: 7.4; inhibition [6]: Active; inhibition [7]: Active; Ratio IC50 [8]: 4.6; inhibition [9]: Active |
| Cc1ccc(-c2csc(N3C(=O)c4ccccc4C3=O)n2)cc1 | 1.32 | 38.4 | 1.73 |  |
